Laboratory results reported in patent US6365616B1, “Methimazole derivatives and tautomeric cyclic thiones to treat autoimmune diseases” (Sentron Medical, Inc., priority 1998, dated 2002).
Marks after values point to notes of the source that are not given here.

Assays:
thyroglobulin RNA = assay: Northern analysis of thyroglobulin RNA levels in FRTL-5 cells; type: cell-based, rat; settings: Table 17, 1 mM
MHC class II RNA = assay: Northern analysis of MHC class II RNA levels in FRTL-5 cells; type: cell-based, rat; settings: 100 U/ml γ-interferon, 6H medium, 40 hours
(NZB x NZW)F1 mice = assay: Prevention of proteinuria (SLE model) in female (NZB x NZW)F1 mice; type: in vivo; settings: for Animals with proteinuria, 30-500 (mg/dl proteinuria) / Animals with proteinuria, >500 (mg/dl proteinuria) / Animals with proteinuria, Neg-Trace (mg/dl proteinuria): 0.05% MMI, 0.01% 5-phenylmethimazole, 0.05% 2-mercaptoimidazole
Text: Female (NZB x NZW)F1 mice were obtained from Jackson Labs. Animals were followed with AMES 2855 Uristix (Miles) to semiquantitatively measure proteinuria. Proteinuria was taken as a measure of development of SLE and MMI suppression of proteinuria as suppression of renal complexes in kidney (Mozes et al., J. Clin Immunology 18:106-113 (1998)). At 7-8 mos. mice develop proteinuria reflecting renal disease. Treatment was from 2 mos to 6 mos of age. Treatment was oral. Each group had 8 animals to start.
In this experiment, immunohistology was performed in a blind fashion on 5 μm thick frozen kidney sections which were fixed and stained with FITC-conjugated goat antibodies to immunoglobulin G (γ chain specific) as described (Mozes, et al., Science 261:91-93 (1993); Mozes, E., et al., ibid (1998)). Compound 10, a tautomeric cyclic thione, and MMI are effective in preventing SLE in this experimental model.
Death of some animals in this experiment occurred for technical reasons, i.e. flooding of cages, handling, etc., in the last 2 mos. However, losses in the control group were similar to experimental groups. MMI, 2-mercaptoimidazole, and Compound 10 treatments were administered during the period between 2 and 6.25 months of age.

[1] = system: γ-IFN-increased protein/DNA complex with DRα 5′-flanking region probe; assay: Gel shift (EMSA) with 137 class II probe, extracts from γ-IFN-treated FRTL-5 cells; type: cell-based, rat; settings: 137 class II probe, γ-IFN-treated 5H cells
Method: Cells were grown in 6H medium with 5 % calf serum for 6-7 days to 70-80% confluence, then shifted to 5H medium with 5 % calf serum for 5 days. TSH (1×10^−10 M), gamma-interferon (100 U/ml), MMI (5 mM), and different concentrations of MMI derivatives or tautomeric cyclic thiones (0.0001 to 10 mM) were added as appropriate for […]. Cells were then harvested and extracts were made by a modification of a method of Dignam, J., et al. Methods in Enzymology, 101:582-598 (1983). In brief, cells were harvested by scraping after being washed twice with cold phosphate-buffer saline (PBS). Subsequently they were pelleted, washed in cold PBS and then pelleted again. The pellet was resuspended in Dignam buffer C (20 mM Hepes buffer at pH 7.9, 1.5 mM MgCl2, 0.42 M NaCl, 25% glycerol, 0.5 mM dithiotreitol (DTT), 0.5 mM phenylmethylsulfonylfluoride (PMSF), 1 […] pepstatin). The final NaCl concentration was adjusted on the basis of cell pellet volume to 0.42 M and cells were lysed by repeated cycles of freezing and thawing. Extracts were then centrifuged at 10,000×g at 4° C. for 20 min. The supernatant was recovered, aliquoted and stored at −70° C.
Cell extracts to perform class II gel shift studies were prepared exactly as for class I studies (Dignam et al., ibid, 582-598 (1983); Giuliani C, et al., J. Biol. Chem. 270: 11453-11462 (1995); Saji M, et al., J. Biol. Chem. 272: 20096-20107 (1997); Montani, V., et al., Endocrinology 139: 280-289 (1998a); Montani, V., et al., Endocrinology 139: 290-302 (1998b)), with the exception that the extracts were from γ-interferon treated cells, usually 100 U/ml interferon for 24 to 48 hours. Similarly, electrophoretic mobility shift assays (EMSA) were performed in the same way. Oligonucleotides used for EMSA were synthesized (Operon Technologies, Inc.) or were purified from 2 % agarose gels using either QIAEX (Qiagen, Chatsworth, Calif.) or Jet Sorb (Genomed) following restriction enzyme treatment of chimeric HLA-DRα-CAT constructs (Montani et al., 1998a, b). The oligonucleotides were dephosphorylated with calf intestinal alkaline phosphatase, labeled with […] or with [γ-^32P]ATP using T4 polynucleotide kinase, then purified on an 8% native polyacrylamide gel (Giuliani C, et al., ibid, 11453-11462 (1995); Saji M, et al., ibid, 20096-20107 (1997); Sambrook J, et al., ibid, 2:11.23-11.44 (1989); Montani, V., et al., ibid, 280-289 (1998a), 290-302 (1998b)).
Binding reactions for class II EMSA used similar conditions as well. They were carried out in a volume of 20 μl for 30 min at room temperature. The reaction mixtures contained 1.5 fmol of [^32P]DNA, 3 μg cell extract and 1.5 to 3 μg poly(di-dC) in 10 mM Tris-Cl at pH 7.9, 1 mM MgCl2, 1 mM DTT, 1 mM EDTA, and 5% glycerol. Where indicated, unlabeled double- or single-stranded oligonucleotides were added to the binding reaction as competitors and incubated with the extract for 20 min at room temperature prior to the addition of labeled DNA. Similarly, in experiments using antiserum, extracts were also incubated in the same buffer containing antiserum or normal rabbit serum for 20 min at room temperature before being processed as above. Following incubations, reaction mixtures were subjected to electrophoresis on 3.5 or 5 % native polyacrylamide gels at 160 V in 0.5xTBE, at room temperature, for 1.5 to 2 h. Gels were dried and autoradiographed at -80° C overnight unless otherwise noted.
FIG. 7 depicts the effect of MMI on the ability of γ-IFN to increase the formation of protein/DNA complexes with the […] DR α5′-flanking region probe. The radiolabeled probe is the same as that used and diagrammatically presented in FIG. 6; it contains −137 bp to +45 bp of the 5′-flanking region of DRα-CAT chimera. Extracts were from FRTL-5 rat thyroid cells grown to near confluency in TSH, maintained 6 days in SH medium, then treated with 100 U/ml γ-IFN, 5 mM MMI, or both for the last 48 h before the experiment was terminated. […]

Cn1c(-c2ccccc2)cnc1S [Compound 10, 5-Phenylmethimazole]
increase of TG RNA levels compared with MMI (thyroglobulin RNA): no comparable increase | % inhibition of class II RNA expression (MHC class II RNA; 100 μM): 75 ± 15% | % inhibition of class II RNA expression (MHC class II RNA; 1 mM): 87 ± 4% | Animals with proteinuria, 30-500 (mg/dl proteinuria) ((NZB x NZW)F1 mice; 6 mos, oral): 0 of 8 | Animals with proteinuria, >500 (mg/dl proteinuria) ((NZB x NZW)F1 mice; 6 mos, oral): 0 of 8 | Animals with proteinuria, Neg-Trace (mg/dl proteinuria) ((NZB x NZW)F1 mice; 6 mos, oral): 8 of 8 | Animals with proteinuria, 30-500 (mg/dl proteinuria) ((NZB x NZW)F1 mice; 7.5 mos, oral): 1 of 6 | Animals with proteinuria, >500 (mg/dl proteinuria) ((NZB x NZW)F1 mice; 7.5 mos, oral): 0 of 6 | Animals with proteinuria, Neg-Trace (mg/dl proteinuria) ((NZB x NZW)F1 mice; 7.5 mos, oral): 5 of 6* | significant numbers of immune complexes in kidneys (FIG. 15) ((NZB x NZW)F1 mice; immunohistology of frozen kidney sections): not true | toxicity in vivo ((NZB x NZW)F1 mice; one-fifth the MMI concentration, NZB and NOD mouse experiments): nontoxic | development of proteinuria at 7.5 mos ((NZB x NZW)F1 mice; oral, compound 10 at a fifth the MMI concentration): significantly prevented proteinuria | % inhibition of IFN-increased complex formation ([1]; 10 μM): 35 ± 15% | % inhibition of IFN-increased complex formation ([1]; 100 μM): 78 ± 10% | % inhibition of IFN-increased complex formation ([1]; 1 mM): 95 ± 16%
